In patent US20080275105A1, “Selective Muscle Relaxant and Pharmaceutical Compositions” (UNIVERSIDADE FEDERAL DO RIO DE JANEIROUFRJ, priority 2004, published 2008):

Key:
Type in all cases: cell-based
rat papillary muscle = assay: Isometric tension (electrically stimulated twitches) in papillary muscle; conditions: 10 to 100 μM; not significant
Description: (§1) Once the experiments have been carried out, the findings were subject to statistical analyses being expressed in average ±SEM as a percentage of the control value, and graphs were drawn up using the Sigma Plot 5.0 program to represent the data obtained. For the statistical analysis of the effects on the different muscle tissues, the difference was assessed among the concentrations of the same derivative, using the “t” Student test. In order to ascertain the difference among the derivatives, the one-way ANOVA test was used. The differences were considered as significant for p<0.05. The Cl50 was expressed as an average ±SEM of the values obtained for each experiment through non-linear regression based on the y=yo+ae^−bx equation.
(§2) After anesthesia with ethyl ether, male Wistar rats weighing between 240-280 grams were sacrificed through cervical dislocation. The heart was removed rapidly and the papillary muscle and the ventricular bundles were dissected in Tyrode's solution, whose composition is given in Table 2 below, at room temperature. The muscles were placed in vertical chambers with a capacity of 10 mL and fixed at their extremities: the lower portion to a hook located in the stimulation electrode fixation rod and the upper portion connected to a power transducer (Grass FT03) for recording the muscle twitches.
(§3) The muscles were stimulated electrically with supra-maximum voltage (50-60 V) through a stimulator (Grass S88) at a frequency of 1.0 Hz. The signals captured by the transducer were amplified (Cyberamp 380, Axon Instruments) and the isometric tension was digitized (Digidata 1322A, Axon Instruments) and stored on a computer. The screening and analysis of the experiment was handled through the Axoscope 8.0 program (Axon Instruments) (Sudo & cols., 2001). The chamber solution was bubbled continuously with a carbogenic mixture (95% O2/5% CO2) and kept at a temperature of 37° C.
(§4) After the stabilization of the muscle twitches (approximately 30 min) the records were carried out in the absence (control) and presence of rising concentrations (10 to 100 μM) of the different L294 analogs, diluted in DMSO. The records were carried out in pairs (two papillary and two ventricle) thus allowing the control experiments to be carried out in one of the pairs, meaning with rising quantities of DMSO equivalent to those used to dilute the substances. The reversibility of the effect of the substances was investigated at the end of each experiment, noting the recovery of the muscle twitches after bathing the preparation with Tyrode's solution.

[1] = test system: left ventricle bundles of a rat heart; assay: Isometric tension in ventricular bundles
Description: as §1, §2, §3, §4

[2] = test system: rat aorta rings with the vascular endothelium preserved; assay: Phenylephrine-induced contracture in aorta rings with preserved endothelium; conditions: phenylephrine 10 μM; for IC50: Rattus norvegicus, with endothelium, six experiments, read-out: CI50 (μM) Average ± SEM
Description: as §1
Male Wistar rats weighing between 240-280 grams were sacrificed through dislocation of the cervical column under anesthesia using ethyl ether. The aorta artery was removed and transferred to a Petri dish containing modified Tyrode's solution whose composition is described in Table 3 below, where the vessel was cleaned and the connective tissue was removed. According to the scheduled Experiment Protocol, the vascular endothelium was removed mechanically with the assistance of a polyethylene rod. The artery was divided into rings with a width of 2-3 mm. Two hooks were placed in the wall of the vessel in order to record the tension generated by the muscle in a transversal direction. To do so, one of the hooks was tied to a fixed point in the chamber and the other to a power transducer (FT 03) for recording the isometric tension. The tension generated by the muscle was transformed into a digitized electric signal (Digidata 1322A) and stored in a computer for subsequent analysis using the Axoscope 8.0 program (Axon Instruments, Inc). The chamber was filled with Krebs solution, oxygenated and kept at a temperature of 37° C.
After stabilizing the preparation, approximately 120 minutes, the Experiment Protocol began. Initially, in order to identify the presence or absence of the vascular endothelium, the preparation was exposed to phenylephrine (10 μM) and when the contracture in response to this substance was stabilized, acetylcholine (10 μM) was added to the nutrient solution. Relaxation of over 80% in response to the acetylcholine indicated the full integrity of the endothelium and relaxation of less than 10% indicated the absence of endothelium. The tissues in which the relaxation intensity fell between >10% and <80% were discarded. In order to investigate the vasodilator effect of the different L294 analogs, they were added to the experiment chambers in rising concentration after the contracture stabilization of the vessel induced by phenylephrine. The tension registered after treatment with each of the L294 analog concentrations was normalized as a function of the amplitude of the contracture triggered by phenylephrine. For the purpose of comparing the potency of some of the L294 analogs, the Cl50 was determined for each experiment using the y=yo+ae^−bx equation and their mean was used for the statistical analysis.

Row | SMILES | maximum alterations to the papillary muscle twitches (rat papillary muscle) | muscular response in ventricular bundles ([1]; concentration not given, alterations not greater than 10%) | IC50 [2] [µM] | muscle twitches / contractility in ventricular bundles ([1]; 100 μM) | maximum inhibition levels of phenylephrine contracture, with endothelium [2] [%]
1 | CN(/N=C/c1cccs1)C(=O)c1ccc2c(c1)OCO2 [L785, 1,3-Benzodioxol-5-carboxylic acid, N-methyl-N′-[1-thiophene-2-yl-meth-(E)-ylidene]-hydrazide] | 86.5±4.0 % of the control | 96.5±3.8 % of the control | 10.2 ± 0.5 | – | –
2 | O=C(c1ccc2c(c1)OCO2)N(Cc1ccccc1)/N=C/c1cccs1 [L786, 1,3-Benzodioxol-5-carboxylic acid, N-benzyl-N′-[1-thiophene-2-yl-meth-(E)-ylidene]-hydrazide] | – | – | 134 ± 31 | 79.9±10.6 % of the control | 34.5±7.6
